Test results taken from ChEMBL document CHEMBL1201862, “PubChem BioAssay data set” (2004).
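A five-concentration, 48-hour dose response in 96-well plates underlies each endpoint, interpolated linearly between surrounding concentrations. The concentration for 50% growth inhibition is given as GI50.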 Activity calls are given as the source filed them. No stated cut-off is given here; in the data, active = GI50 up to about 1.1 µM and inactive = higher.

Experiments:
Experiment in all cases: NCI tumour cell line growth inhibition, 48 h
COLO 205 = system: COLO 205
EKVX = system: EKVX
HL-60 = system: HL-60
KM12 = system: KM12
M14 = system: M14
MDA-MB-231 = system: MDA-MB-231
MDA-MB-435 = system: MDA-MB-435
MOLT-4 = system: MOLT-4
NCI-H226 = system: NCI-H226
OVCAR-3 = system: OVCAR-3
OVCAR-8 = system: OVCAR-8
RPMI-8226 = system: RPMI-8226
SF-268 = system: SF-268
SF-295 = system: SF-295
SK-MEL-28 = system: SK-MEL-28
SK-MEL-2 = system: SK-MEL-2
SK-MEL-5 = system: SK-MEL-5
SNB-19 = system: SNB-19
SR = system: SR
TK-10 = system: TK-10

Measured: GI50

CC(C)NC1(C(N)=O)CCN(Cc2ccccc2)CC1
inactive: COLO 205 > 100 µM | EKVX > 100 µM | HL-60 > 100 µM | KM12 > 100 µM | M14 > 100 µM | MDA-MB-231 > 100 µM | MDA-MB-435 > 100 µM | MOLT-4 > 100 µM | NCI-H226 > 100 µM | OVCAR-3 > 100 µM | OVCAR-8 > 100 µM | RPMI-8226 > 100 µM | SF-268 > 100 µM | SF-295 > 100 µM | SK-MEL-28 > 100 µM | SK-MEL-2 > 100 µM | SK-MEL-5 > 100 µM | SNB-19 > 100 µM | SR > 100 µM | TK-10 > 100 µM

NS(=O)(=O)c1ccc(NC(=O)c2cccc3cc4ccccc4nc23)cc1
inactive: COLO 205 12.2 µM | EKVX > 100 µM | HL-60 25.9 µM | KM12 11.3 µM | M14 > 72.1 µM | MDA-MB-231 > 100 µM | MDA-MB-435 34.3 µM | MOLT-4 2.7 µM | NCI-H226 25.9 µM | OVCAR-3 46.6 µM | OVCAR-8 6.3 µM | RPMI-8226 8.32 µM | SF-268 56.9 µM | SF-295 16.3 µM | SK-MEL-28 > 91 µM | SK-MEL-2 > 100 µM | SK-MEL-5 17.3 µM | SNB-19 28.3 µM | SR 4.58 µM | TK-10 28.2 µM

S=C(c1c[nH]c2ccccc12)N1CCCCC1
inactive: COLO 205 > 100 µM | EKVX 85.9 µM | HL-60 70.6 µM | KM12 > 100 µM | M14 > 100 µM | MDA-MB-231 > 100 µM | MDA-MB-435 85.5 µM | MOLT-4 58.1 µM | NCI-H226 > 100 µM | OVCAR-3 > 100 µM | OVCAR-8 > 100 µM | RPMI-8226 36.9 µM | SF-268 > 100 µM | SF-295 62.1 µM | SK-MEL-28 > 100 µM | SK-MEL-2 > 100 µM | SK-MEL-5 40 µM | SNB-19 > 100 µM | SR > 100 µM | TK-10 > 100 µM

CC(=O)NNc1nc(C)c(C(/C=C/c2ccccc2O)=N/NC(=O)c2ccncc2)s1
inactive: COLO 205 > 100 µM | EKVX > 100 µM | HL-60 > 100 µM | KM12 > 100 µM | M14 > 100 µM | MDA-MB-231 > 100 µM | MDA-MB-435 > 100 µM | MOLT-4 > 100 µM | NCI-H226 > 100 µM | OVCAR-3 > 100 µM | OVCAR-8 > 100 µM | RPMI-8226 > 100 µM | SF-268 > 100 µM | SF-295 > 100 µM | SK-MEL-28 > 100 µM | SK-MEL-2 > 100 µM | SK-MEL-5 > 100 µM | SNB-19 > 100 µM | SR > 100 µM | TK-10 > 100 µM

O=C(O)CN(CC(=O)O)C1CCCCC1N1CC(=O)OC(=O)C1 (stereo not given)
inactive: COLO 205 > 100 µM | EKVX > 100 µM | HL-60 > 100 µM | KM12 > 100 µM | M14 > 100 µM | MDA-MB-231 > 100 µM | MDA-MB-435 > 100 µM | MOLT-4 > 100 µM | NCI-H226 > 100 µM | OVCAR-3 > 100 µM | OVCAR-8 > 100 µM | RPMI-8226 > 100 µM | SF-268 61.7 µM | SF-295 > 100 µM | SK-MEL-28 > 100 µM | SK-MEL-2 > 100 µM | SK-MEL-5 > 100 µM | SNB-19 > 100 µM | SR 71.4 µM | TK-10 > 100 µM

O=C(O)c1ccc(/C=N\N(CCO)C2=NCCN2)cc1
inactive: COLO 205 > 100 µM | EKVX > 100 µM | HL-60 > 100 µM | KM12 > 100 µM | M14 > 100 µM | MDA-MB-231 > 100 µM | MDA-MB-435 > 100 µM | MOLT-4 > 100 µM | NCI-H226 > 100 µM | OVCAR-3 > 100 µM | OVCAR-8 > 100 µM | RPMI-8226 > 100 µM | SF-268 > 100 µM | SF-295 > 100 µM | SK-MEL-28 > 100 µM | SK-MEL-2 > 100 µM | SK-MEL-5 > 100 µM | SNB-19 > 100 µM | SR > 100 µM | TK-10 > 100 µM

Cc1cnc2c(c1)C(=O)N(c1ccc([N+](=O)[O-])cc1)S2(=O)=O
inactive: COLO 205 > 100 µM | EKVX > 100 µM | HL-60 28.2 µM | KM12 > 100 µM | M14 > 100 µM | MDA-MB-231 > 100 µM | MDA-MB-435 70.5 µM | MOLT-4 > 100 µM | NCI-H226 19.9 µM | OVCAR-3 > 100 µM | OVCAR-8 > 100 µM | RPMI-8226 37.7 µM | SF-268 77.8 µM | SF-295 82.8 µM | SK-MEL-28 74 µM | SK-MEL-2 5.47 µM | SK-MEL-5 71.3 µM | SNB-19 56.2 µM | SR 25.7 µM | TK-10 > 100 µM

C[n+]1cn(C2=C([N-]S(=O)(=O)c3ccccc3)C(=O)c3ccccc3C2=O)c2ccccc21
inactive: COLO 205 2.85 µM | EKVX > 100 µM | HL-60 13 µM | KM12 15.9 µM | M14 16.5 µM | MDA-MB-231 20.1 µM | MDA-MB-435 2.79 µM | MOLT-4 23.2 µM | NCI-H226 56.4 µM | OVCAR-3 3.06 µM | OVCAR-8 20 µM | RPMI-8226 71.3 µM | SF-268 31.6 µM | SF-295 61.4 µM | SK-MEL-28 36.1 µM | SK-MEL-2 11.5 µM | SK-MEL-5 6.08 µM | SNB-19 19.3 µM | SR 44.6 µM | TK-10 20.8 µM

CC1(C)OCC2OC3(c4nc(C#N)c(N)o4)OC(C)(C)OC3C2O1 (stereo not given)
inactive: COLO 205 > 100 µM | EKVX > 100 µM | HL-60 > 100 µM | KM12 > 100 µM | M14 > 100 µM | MDA-MB-231 > 100 µM | MDA-MB-435 > 100 µM | MOLT-4 > 100 µM | NCI-H226 > 100 µM | OVCAR-3 > 100 µM | OVCAR-8 > 100 µM | RPMI-8226 > 100 µM | SF-268 > 100 µM | SF-295 > 100 µM | SK-MEL-28 > 100 µM | SK-MEL-2 > 100 µM | SK-MEL-5 > 100 µM | SNB-19 > 100 µM | SR > 100 µM | TK-10 > 100 µM

CCC(CCCC[C@H]1CC[C@@H]2CC(=O)C[C@H]12)OC (stereo not given in full)
inactive: COLO 205 > 100 µM | EKVX 59 µM | HL-60 39.5 µM | KM12 > 100 µM | M14 > 100 µM | MDA-MB-231 > 100 µM | MDA-MB-435 > 100 µM | MOLT-4 > 100 µM | NCI-H226 > 100 µM | OVCAR-3 > 100 µM | OVCAR-8 > 100 µM | RPMI-8226 > 100 µM | SF-268 > 100 µM | SF-295 > 100 µM | SK-MEL-28 > 100 µM | SK-MEL-2 > 100 µM | SK-MEL-5 31.8 µM | SNB-19 > 100 µM | SR 51.8 µM | TK-10 > 100 µM
